Test results: the supplement of paper PMC13380429

Tests used:
A549-ACE2 = assay: drug-induced phospholipidosis relative to tamoxifen; higher = more phospholipidosis
[1] = tested on: A549-ACE2 infected with SARS-CoV-2; assay: cell count relative to DMSO; higher = less toxic; settings: 24 h
Caco-2 [2] = assay: cell viability relative to DMSO; higher = less toxic; settings: 72 h
HepG2 [3] = assay: as above; settings: 72 h
Calu-3 [4] = assay: as above; settings: 72 h
U2OS [5] = assay: as above; settings: 72 h
Vero E6 [6] = assay: as above; settings: 72 h
Caco-2 [7] = assay: relative viability EC50 (midpoint between 100% and the lowest measured viability); higher = less toxic; settings: 72 h
HepG2 [8] = assay: as above; settings: 72 h
Calu-3 [9] = assay: as above; settings: 72 h
U2OS [10] = assay: as above; settings: 72 h
Vero E6 [11] = assay: as above; settings: 72 h
[12] = tested on: A549-ACE2 infected with SARS-CoV-2; assay: SARS-CoV-2 infection rate relative to DMSO; higher = more infection; settings: 24 h
[13] = tested on: A549-ACE2 infected with SARS-CoV-2; assay: morphology score (similarity to uninfected cells); higher = more like uninfected cells; settings: 24 h
Caco-2 [14] = assay: drug sensitivity score (DSS) for viability; higher = more toxic; extreme values may be limits of the assay; settings: 72 h
HepG2 [15] = assay: as above; settings: 72 h
Calu-3 [16] = assay: as above; settings: 72 h
U2OS [17] = assay: as above; settings: 72 h
Vero E6 [18] = assay: as above; settings: 72 h

CN(Cc1ccc(C(C)(C)C)cc1)Cc1cccc2ccccc12 [butenafine]
drug-induced phospholipidosis [%], A549-ACE2
Settings	0.3 µM	0.833333 µM	3.33333 µM	6.66667 µM	10 µM	30 µM
24 h	1.71	-2.5	2.21	-2.25	2.84	7.06
48 h	1.14	-3.77	-1.99	-1.09	3.04	15.1
72 h	2.18	-4.26	-1.97	-2.04	0.626	14.1

Settings	SARS-CoV-2 infection rate, [12] [%]	cell count, [1] [%]	cell viability, Caco-2 [2] [%]	cell viability, Calu-3 [4] [%]	cell viability, HepG2 [3] [%]	cell viability, U2OS [5] [%]	cell viability, Vero E6 [6] [%]	morphology score, [13]
1 nM	–	–	95.3	100	106	94.6	92.8	–
10 nM	–	–	101	102	94.2	98	102	–
100 nM	–	–	92.8	98	103	96.9	95.5	–
0.3 µM	100	101	–	–	–	–	–	0.14
1000 nM	–	–	92.5	94.5	102	96.3	102	–
3 µM	105	83	–	–	–	–	–	-0.05
10 µM	77	107	–	–	–	–	–	0.58
10000 nM	–	–	93.6	98	105	96.1	97.4	–
30 µM	39	110	–	–	–	–	–	0.79

Settings	drug sensitivity score	relative viability EC50 [µM]
Caco-2 [7]	–	> 10
Caco-2 [14]	0	–
Calu-3 [9]	–	> 10
Calu-3 [16]	0	–
HepG2 [8]	–	> 10
HepG2 [15]	0	–
U2OS [10]	–	> 10
U2OS [17]	0	–
Vero E6 [11]	–	> 10
Vero E6 [18]	0	–
